Common to all, as to type: cell-based
Data set [1] deals with Human Rhinovirus 14 (HRV14) in H1-HeLa cells. Nature of the data set: H1-HeLa HRV-CTG EC50, HRV14 (Example Z). Particulars: Rhinovirus B, HRV14, 96 h, MOI 1.0, 4 days, Celltiter-Glo, read-out: HRV14 HELA EC50 (nM) (per Ex. Z). An excerpt:
(§1) H1-Hela cell line (ATCC, Manassas, VA, Cat #CRL-1958) was maintained in Dulbecco's […] (DMEM) (Corning, New York, NY, Cat #15-018CM) supplemented with 10% fetal bovine serum (FBS) (Hyclone, Logan, UT, Cat #SH30071-03), and 1× Penicillin-Streptomycin-L-Glutamine (Coming, New York, NY, Cat #30-009-C1). Cells were passaged 2 times per week to maintain sub-confluent densities and were used for experiments at passage 5-30. The Human Rhinovirus 1B (HRV1B) (ATCC, Manassas, VA, Cat #VR-1645), Human Rhinovirus 14 (HRV14) (ATCC, Manassas, VA, Cat #VR-284), and Human Rhinovirus 16 (HRV16) (ATCC, Manassas, VA, Cat #BR-283) was obtained through ATCC. Viral infection was monitored by determining viability of H1-HeLa cells as described below.
(§2) Test molecules are prepared in 100% DMSO in 384-well polypropylene plates (Greiner, Monroe, NC, Cat #784201) with 8 compounds per plate in grouped replicates of 4 at 10 serially diluted concentrations (1:3). The serially diluted compounds were transferred to low dead volume Echo plates (Labcyte, Sunnyvale, CA, Cat #LP-0200).
(§3) The test compounds were spotted to 384-well assay plates (Greiner, Monroe, NC, Cat #781091) at 200 nL per well using an Echo acoustic dispenser (Labcyte, Sunnyvale, CA). H1-HeLa cells were harvested and suspended in DMEM (supplemented with 2% FBS and 1× Penicillin-Streptomycin-L-Glutamine) and seeded to the pre-spotted assay plates at 5,000 cells per well in 30 μL. HRV1B, HRV14, and HRV16 was diluted in DMEM (supplemented with 2% FBS and 1× Penicillin-Streptomycin-L-Glutamine) at 97.1 million Infectious Units (IU) per mL, 151 million IU per mL and 221 million IU per mL respectively. 10 μL of virus per well was added to the assay plates containing cells and compounds, for an MOI of 0.5, 1.0, and 0.25 respectively. The assay plates were incubated for 4 days at 37° C. and 5% CO2. At the end of incubation, Celltiter-Glo (Promega, Madison, WI, Cat #G7573) was prepared. The assay plates and Celltiter-Glo reagent were equilibrated to room temperature for at least 15 minutes. 40 μL per well of Celltiter-Glo reagent was added and the plates were incubated at room temperature for 15 minutes before reading the luminescence signal on an EnVision multimode plate reader (Perkin Elmer, Waltham, MA). Rupintrivir was used as positive control and DMSO was used as negative control. Values were normalized to the positive and negative controls (as 0% and 100% replication, respectively) and data was fitted using non-linear regression analysis by Gilead's dose response tool. The EC50 value for each compound was defined as the concentration reducing viral replication by 50%.
In general terms: Cellular ATP, detected with luciferase, serves as a proxy for viable cell number.

The subject of data set [2] is Human Rhinovirus 16 (HRV16) in H1-HeLa cells. In words: H1-HeLa HRV-CTG EC50, HRV16 (Example Z). Particulars: Rhinovirus A, HRV16, 96 h, MOI 0.25, 4 days, Celltiter-Glo, read-out: HRV 16 HELA EC50 (nM) (per Ex. Z).
Description: as §1, §2, §3

Data set [3] deals with Human Rhinovirus 1B (HRV1B) in H1-HeLa cells. In words: H1-HeLa HRV-CTG EC50, HRV1B (Example Z). Particulars: Rhinovirus A, 96 h, MOI 0.5, 4 days, Celltiter-Glo, read-out: HRV 1B HELA EC50 (nM) (per Ex. Z).
Description: as §1, §2, §3

Data set [4] in a line: RSV HEP2-CC50-384-V2 (per Ex. V). Particulars: human.
Data set [5] is described as follows: RSV NHBE CC50 384 V2 (per Ex. U). Particulars: human.
Data set [6] deals with Recombinant Respiratory Syncytial virus strain A2 containing the firefly luciferase reporter (RSV-Fluc) in NHBE cells. In words: RSV NHBE FLuc EC50 (Example I). The note with it: human respiratory syncytial virus, 72 h, read-out: RSV NHBE FLuc EC50 (nM) (per Ex. I). An excerpt:
Normal human bronchial epithelial (NHBE) cells are purchased from Lonza (Walkersville, MD Cat #CC-2540) and maintained in Bronchial Epithelial Cell Growth Medium (BEGM) (Lonza, Walkersville, MD, Cat #CC-3170) with all provided supplements in the BulletKit. Cells are passaged 2-3 times per week to maintain sub-confluent densities and are used for experiments at passages 2-4.
Recombinant Respiratory Syncytial virus strain A2 containing the firefly luciferase reporter between the P and M genes (RSV-Fluc, 6.3×10^6 TCID50/mL) is purchased from Viratree (Durham, NC, Cat #R^145).
NHBE cells (5×10^3/well) are seeded in 100 μL white wall/clear bottom 96-well plates (Corning) with culture medium and are incubated for 24 hours at 37° C. with 5% CO2. On the following day, three-fold serial dilutions of compounds prepared in DMSO are added to the wells using the HP D300e digital dispenser with normalization to the highest concentration of DMSO in all wells. The cells are then infected with RSV-Fluc diluted with BEGM media at an MOI of 0.1 for a final volume of 200 μL media/well. Uninfected and untreated wells are included as controls to determine compound efficacy against RSV-Fluc. Following incubation with compound and virus for three days at 37° C. with 5% CO2, 100 μL of culture supernatant is removed from each well and replaced with 100 μL of ONE-Glo luciferase reagent (Promega, Madison, WI, Cat #E6110). The plates are gently mixed by rocking for 10 minutes at 21° C. and luminescence signal is measured using an Envision plate reader (PerkinElmer). Values are normalized to the uninfected and infected DMSO controls (0% and 100% infection, respectively). Non-linear regression analysis is applied to determine the compound concentration at which 50% luminescence signal is reduced (EC50) using the XLfit4 add-in for MICROSOFT®EXCEL®. All experiments are performed in duplicate with two technical repeats each.

SMILES strings stand for the structures. Some results are limits rather than exact numbers.

As a reminder, the EC50 is the concentration at which the effect is half-maximal. One may read the CC50 as the concentration that lowers cell viability or growth by half. A low value points to harm at low concentration. `CCCCCCCCCCCCCCCCCCOC[C@H](COP(=O)(O)OC[C@@]1(C#N)O[C@@H](c2ccc3c(N)ncnn23)[C@H](O)[C@@H]1O)OCc1cc(F)cc(C#N)c1` [Compound 1, ((2R,3S,4R,5S)-5-(4-aminopyrrolo[2,1-f][1,2,4]triazin-7-yl)-2-cyano-3,4-dihydroxytetrahydrofuran-2-yl)methyl ((R)-2-((3-cyano-5-fluorobenzyl)oxy)-3-(octadecyloxy)propyl) hydrogen phosphate]: the EC50 in data set [1] worked out at 8 nM; in data set [2] it was 8 nM; in data set [3], 4 nM; in data set [6] it was 104 nM. The CC50 at 3 days was above 31.2 µM in data set [4] and 2.4 µM in data set [5].

In the case of `CCCCCCCCCCCCCCCCCCOC[C@H](COP(=O)(O)OC[C@@]1(C#N)O[C@@H](c2ccc3c(N)ncnn23)[C@H](O)[C@@H]1O)OCc1ccc(C#N)c(Cl)c1` [Compound 7, ((2R,3S,4R,5S)-5-(4-aminopyrrolo[2,1-f][1,2,4]triazin-7-yl)-2-cyano-3,4-dihydroxytetrahydrofuran-2-yl)methyl ((R)-2-((3-chloro-4-cyanobenzyl)oxy)-3-(octadecyloxy)propyl) hydrogen phosphate], the half-maximal effective concentration (EC50) in data set [1] came to 50 nM; in data set [2], 40 nM; in data set [3] it was 38 nM; in data set [6], 113 nM. Moreover, the CC50 at 3 days in data set [4] was above 49.9 µM; in data set [5], 5.96 µM.

Turning to `CCCCCCCCCCCCCCCCCCOC[C@H](COP(=O)(O)OC[C@@]1(C#N)O[C@@H](c2ccc3c(N)ncnn23)[C@H](O)[C@@H]1O)OCc1ccc(C#N)c(-n2cncn2)c1` [Compound 16, ((2R,3S,4R,5S)-5-(4-aminopyrrolo[2,1-f][1,2,4]triazin-7-yl)-2-cyano-3,4-dihydroxytetrahydrofuran-2-yl)methyl ((R)-2-((4-cyano-3-(1H-1,2,4-triazol-1-yl)benzyl)oxy)-3-(octadecyloxy)propyl) hydrogen phosphate], the EC50 was 11 nM in data set [1], 10 nM in data set [2], 5 nM in data set [3] and below 6 nM in data set [6]. The CC50 at 3 days in data set [4] is above 41.5 µM; in data set [5], 4.61 µM.

With `CCCCCCCCCCCCCCCCCCOC[C@H](COP(=O)(O)OC[C@@]1(C#N)O[C@@H](c2ccc3c(N)ncnn23)[C@H](O)[C@@H]1O)OCc1ccc(C#N)nc1` [Compound 19, ((2R,3S,4R,5S)-5-(4-aminopyrrolo[2,1-f][1,2,4]triazin-7-yl)-2-cyano-3,4-dihydroxytetrahydrofuran-2-yl)methyl ((R)-2-((6-cyanopyridin-3-yl)methoxy)-3-(octadecyloxy)propyl) hydrogen phosphate], in data set [4], the CC50 at 3 days was determined as 46.4 µM. Moreover, the EC50 in data set [6] is 98 nM.

With `CCCCCCCCCCCCCCCCCCOC[C@H](COP(=O)(O)OC[C@@]1(C#N)O[C@@H](c2ccc3c(N)ncnn23)[C@H](O)[C@@H]1O)Oc1cccc(C#N)n1` [Compound 21, ((2R,3S,4R,5S)-5-(4-aminopyrrolo[2,1-f][1,2,4]triazin-7-yl)-2-cyano-3,4-dihydroxytetrahydrofuran-2-yl)methyl ((R)-2-((6-cyanopyridin-2-yl)oxy)-3-(octadecyloxy)propyl) hydrogen phosphate], the EC50 came to 60 nM in data set [1], 50 nM in data set [2], 35 nM in data set [3] and 41 nM in data set [6]. Moreover, the CC50 at 3 days was 39.7 µM in data set [4] and 3.35 µM in data set [5].

For the compound `CCCCCCCCCCCCCCCCCCOC[C@H](COP(=O)(O)OC[C@@]1(C#N)O[C@@H](c2ccc3c(N)ncnn23)[C@H](O)[C@@H]1O)Oc1ccc(C#N)c(OC(C)C)c1` [Compound 23, ((2R,3S,4R,5S)-5-(4-aminopyrrolo[2,1-f][1,2,4]triazin-7-yl)-2-cyano-3,4-dihydroxytetrahydrofuran-2-yl)methyl ((R)-2-(4-cyano-3-isopropoxyphenoxy)-3-(octadecyloxy)propyl) hydrogen phosphate], the EC50 is 9 nM in data set [1], 7 nM in data set [2], 4 nM in data set [3] and 16 nM in data set [6]. For the same compound, the CC50 at 3 days was above 42 µM in data set [4] and 5.4 µM in data set [5].

For `CCCCCCCCCCCCCCCCCCC[C@H](COP(=O)(O)OC[C@@]1(C#N)O[C@@H](c2ccc3c(N)ncnn23)[C@H](O)[C@@H]1O)OCc1cc(F)cc(C#N)c1` [Compound 25, ((2R,3S,4R,5S)-5-(4-aminopyrrolo[2,1-f][1,2,4]triazin-7-yl)-2-cyano-3,4-dihydroxytetrahydrofuran-2-yl)methyl ((R)-2-((3-cyano-5-fluorobenzyl)oxy)henicosyl) hydrogen phosphate], the EC50 in data set [1] came out at 103 nM; in data set [2] it was 99 nM; in data set [3], 45 nM; in data set [6] it was 98 nM. The CC50 at 3 days in data set [4] is above 50 µM; in data set [5], 31 µM.

Take `CCCCCCCCCCCCCCCC[C@@H](COP(=O)(O)OC[C@@]1(C#N)O[C@@H](c2ccc3c(N)ncnn23)[C@H](O)[C@@H]1O)OCc1cc(F)cc(C#N)c1` [Compound 79, ((2R,3S,4R,5S)-5-(4-aminopyrrolo[2,1-f][1,2,4]triazin-7-yl)-2-cyano-3,4-dihydroxytetrahydrofuran-2-yl)methyl ((S)-2-((3-cyano-5-fluorobenzyl)oxy)octadecyl) hydrogen phosphate]: the EC50 was determined as 38 nM in data set [1], 70 nM in data set [2] and 25 nM in data set [3]. Further, the CC50 at 3 days in data set [4] was determined as 38.1 µM; in data set [5], 2.1 µM.

`CCCCCCCCCCCCCCC[C@H](COP(=O)(O)OC[C@@]1(C#N)O[C@@H](c2ccc3c(N)ncnn23)[C@H](O)[C@@H]1O)OCc1cc(F)cc(C#N)c1` [Compound 80, ((2R,3S,4R,5S)-5-(4-aminopyrrolo[2,1-f][1,2,4]triazin-7-yl)-2-cyano-3,4-dihydroxytetrahydrofuran-2-yl)methyl ((R)-2-((3-cyano-5-fluorobenzyl)oxy)heptadecyl) hydrogen phosphate]: the EC50 in data set [1] was 88 nM; in data set [2], 111 nM; in data set [3], 49 nM. The CC50 at 3 days is above 50 µM in data set [4] and 2.17 µM in data set [5].

These data come from patent US20250034182A1, “PHOSPHOLIPID COMPOUNDS AND METHODS OF MAKING AND USING THE SAME” (priority 2021, published 2025).
